Source: patent US9630894B2, “Energy efficient method and apparatus for the extraction of biomolecules from dilute aqueous solution” (DYNASEP INC., priority 2012, dated 2017)

Experiments:
Format in all cases: physicochemical
[1] = CCC extraction with DME of clarified fermentation broth from Clostridium acetobutylicum, GC and DNS assay
Method: This example describes three different runs of the CCC with fermentation broth from Clostridium acetobutylicum. […] The fermentation was intentionally interrupted prior to completion.
The extraction column operated at room temperature (˜25° C.) throughout the column. Periodic extract and raffinate samples were taken and analyzed for the constituents in the extract and raffinate discharges.
This example describes three different runs. In all cases, the mass of solvent to the mass of feed ratio (S/F) was 0.9. In all example the fermentation broth was first centrifuged to removal all cellular matter. Thus, the feed solution was clarified. In the case of the first run, the following components were measured via gas chromatograph (GC) analysis using external standard calibration. The external standard was run prior to analyzing the samples to provide individual calibration between peak area and the respective constituent under measure. […] Acetate was the conjugate base of acetic acid. Butyrate was the conjugate base of butyric acid. All components were quantified in the extract and raffinate. Since the extract and raffinate are mostly water and DME dissolves in water to approximately 20 wt. %, the samples were allowed to degas over a 24 hour period.
During the run, samples were taken of the extract and raffinate. In the case of the extract, the bulk DME was removed by reduction of pressure and addition of heat to flash the DME from the water and other solution constituents.
Extract and raffinate samples were collected at periodic intervals during the CCC testing. […] Glucose was measured via a DNS (3,5-dinitrosalicylic acid) assay.
In cases where the extract formed a two phase solution, the extract samples were diluted with distilled water to create a single phase and homogenous sample prior to GC. The dilution factor was then used to correct the GC measurements for concentrations prior to dilution.

[2] = Packed-column extraction of ethanol and ABE solutions with liquid DME, incremental distribution coefficients; details: for Distribution Coefficient: ABE solution
Method: The tests were carried out in a 50-inch long by 0.68-inch internal diameter (ID) column containing stainless steel distillation packing to increase mass transfer between the liquid DME and the aqueous solution. The flow rate of the liquid DME for all the tests was about […], which calculates to a superficial velocity of the liquid DME of ˜0.3 cm/sec.
For each test, about 65 g of a pre-made feed solution was charged to the extraction column, and the column was sealed. DME was introduced into the system and pressure was maintained at 250 psi with the lab pump. Each run was carried out at ambient temperature (about 30° C.), and flow was manually controlled with the pressure-reduction valve.
About ⅓ of the charge was extracted in each test with DME in three fractions, and the raffinate was collected at the end of each test in two fractions. In the event that the concentration of ethanol, or ABE, in the raffinate was not homogeneous along the length of the column, the raffinate was collected in two fractions where RAF#1 was the first (bottom) portion of the raffinate drained and RAF#2 was the remaining (upper) portion.
All samples along with controls were sent to R.D. Laboratories (Washington, Mo.) for gas chromatography (GC) analysis.
The distribution coefficient (DC) is calculated as the ratio of the concentration of the component in the extract (y) phase to the concentration of the component in the raffinate (x) phase, or DC=Cy/Cx. Using the material balance information in the tables above, and the component analysis supplied by R.D. Labs, the incremental DCs for each fraction were calculated. These DCs are calculated using the conservative assumption that there is no dissolved DME in the liquid phase remaining in the extractor.

[3] = Distribution coefficients of ABE mixtures between DME and aqueous phase in agitated pressure vessel, HPLC
Method: The compositions of the aqueous mixtures were based on concentrations typically produced in a cellulosic fermentation.
Mixtures were charged to a pressure vessel and agitated to provide adequate contacting between the aqueous and solvent (DME) phases. Heat tape was used to control the temperature of the liquid that was measured by thermocouples. Pressure and temperature measurements were taken every five minutes. After temperature and pressure stabilization agitation was ceased and the liquid phases were allowed to fully settle.
A mass balance was also performed on each component of the ABE and BE mixtures to determine a degree of accuracy of the results.

`CC(C)=O` [Acetone, acetone] gave a concentration in sample ([1]; Run 3, Extract Bot, time 31 min) of 7880 µg/mL, a concentration in sample ([1]; Run 3, Extract Bot, time 37 min) of 7900 µg/mL and a concentration in sample ([1]; Run 3, Extract Top, time 31 min) of 7030 µg/mL. For the same compound, the concentration in sample ([1]; Run 3, Extract Top, time 37 min) was 6440 µg/mL, the concentration in sample ([1]; Run 3, Extract, time 22 min) was 2980 µg/mL and the concentration in sample ([1]; Run 3, Extract, time 27 min) was 5300 µg/mL. For the same compound, the concentration in sample ([1]; Run 3, Extract, time 43 min) was 5140 µg/mL, the concentration in sample ([1]; Run 3, Extract, time 70 min) was 4610 µg/mL and the concentration in sample ([1]; Run 3, Extract, time 74 min) was 4090 µg/mL. The concentration in sample ([1]; Run 3, Extract, time 78 min) was 3830 µg/mL, the concentration in sample ([1]; Run 3, Extract, time 82 min) was 4630 µg/mL and the concentration in sample ([1]; Run 3, Feed, time 0 min) was 4870 µg/mL. It also gave a concentration in sample ([1]; Run 3, Raffinate, time 22 min) of 1200 µg/mL, a concentration in sample ([1]; Run 3, Raffinate, time 27 min) of 400 µg/mL and a concentration in sample ([1]; Run 3, Raffinate, time 31 min) of 310 µg/mL. The concentration in sample ([1]; Run 3, Raffinate, time 37 min) was 140 µg/mL, the concentration in sample ([1]; Run 3, Raffinate, time 43 min) was 150 µg/mL and the concentration in sample ([1]; Run 3, Raffinate, time 70 min) was 110 µg/mL. For the same compound, the concentration in sample ([1]; Run 3, Raffinate, time 74 min) was 600 µg/mL, the concentration in sample ([1]; Run 3, Raffinate, time 78 min) was 820 µg/mL and the concentration in sample ([1]; Run 3, Raffinate, time 82 min) was 460 µg/mL. The “Distribution Coefficient” value ([2]; fraction F1, liquid DME) was 0.24, the “Distribution Coefficient” value ([2]; fraction F2, liquid DME) was 0.16 and the “Distribution Coefficient” value ([2]; fraction F3, liquid DME) was 0.04. The “distribution coefficient, previous measurements” value ([2]; previous results, DME/aqueous) was 0.25, the “distribution coefficient (slope of line fit)” value ([3]; 38° C.) was 1.27 and the DC ([3]; test ABE1, […] C., 104 psig) was 1.28. For the same compound, the DC ([3]; test ABE2, 38.3 ° C., 102 psig) was 1.25, the DC ([3]; test ABE3, 38.3 ° C., 103 psig) was 1.23 and the DC ([3]; test ABE4, 38.0 ° C., 103 psig) was 1.34.
